Test results from US20220387365A1, “TUCARESOL DERIVATIVES AND USES THEREOF” (BeyondSpring Pharmaceuticals, Inc., priority 2019, published 2022).

Legend:
[1] = Intravenous and oral dosing pharmacokinetic screen, plasma concentration by LC/MS/MS; design: species or system C57BL/6 mice; details: in vivo; for concentration at 0.083 h / concentration at 0.25 h / concentration at 0.5 h / concentration at 2 h / concentration at 4 h / concentration at 1 h / concentration at 8 h / concentration at 24 h: B02 concentration
Description: (§1) Tucaresol, Compound B02, Compound C01, Compound C02-1, and Compound C02 were dosed once, by IV bolus (3 mg/kg in 20% hydroxyprophyl-13-cyclodextrin with 1 eq NaOH) or PO (10 mg/kg in 1% carboxymethylcellulose/0.1% tween-80 in water), to non-fasted male C57BL/6 mice. Animals were bled from the dorsal metatarsal vein (from the heart for 24 hour time point) for K2-EDTA plasma 0.083 (for IV only), 0.25, 0.5, 1, 2, 4, 8, and 24 hours after dosing. The plasma concentration of the dosed tucaresol or compound were measured by LC/MS/MS (I-CMS-8060 instrument for MS). PK parameters were then calculated with WinNonlin 6.1. For Compounds C01, CO2 and CO2-1, stability in C57BL/6 K2EDTA plasma was also evaluated at 22° C. over 1 hour by utilizing LC.

[2] = Stability in C57BL/6 K2EDTA plasma at 22° C. over 1 hour by LC; type: in vitro ADME, mouse; details: for mouse plasma stability (in words): 22° C.; for Remaining %: mouse plasma, 2,000 ng/mL, 22°C
Description: as §1
Compounds C01 and C02-1 are unstable at 22° C.

[3] = male, C57BL/6, mouse, iv, 3 mg/kg, 0.083 h
[4] = male, C57BL/6, mouse, iv, 3 mg/kg, 0.25 h
[5] = male, C57BL/6, mouse, iv, 3 mg/kg, 2 h
[6] = male, C57BL/6, mouse, iv, 3 mg/kg, 4 h
[7] = male, C57BL/6, mouse, iv, 3 mg/kg, 8 h
[8] = male, C57BL/6, mouse, iv, 3 mg/kg
[9] = male, C57BL/6, mouse, iv, 3 mg/kg, Mean
[10] = male, C57BL/6, mouse, po, 10 mg/kg, 0.25 h
[11] = male, C57BL/6, mouse, po, 10 mg/kg, 0.5 h
[12] = male, C57BL/6, mouse, po, 10 mg/kg, 1 h
[13] = male, C57BL/6, mouse, po, 10 mg/kg, 2 h
[14] = male, C57BL/6, mouse, po, 10 mg/kg, 4 h
[15] = male, C57BL/6, mouse, po, 10 mg/kg, 8 h
[16] = male, C57BL/6, mouse, po, 10 mg/kg
[17] = male, C57BL/6, mouse, po, 10 mg/kg, Mean
[18] = male, C57BL/6, mouse, iv, 3 mg/kg, 0.5 h
[19] = male, C57BL/6, mouse, iv, 3 mg/kg, 1 h

Compound: CO/N=C/c1c(O)cccc1OCc1ccc(C(=O)O)cc1 [Compound B02, (E)−4+((3-hydroxy-2-((methoxyimino)methyl)phenoxy)methyl)benzoic acid]
- AUClast/D ([1]; male, C57BL/6, mouse): 24.3 ng·h/mL per mg/kg
- T1/2 ([1]; male, C57BL/6, mouse): 5.49 h
- Tmax ([1]; male, C57BL/6, mouse): 5.42 h
- Tucaresol plasma concentration, Mean [1, 3]: 12.5 ng/mL
- Tucaresol plasma concentration, Mean [1, 4]: 6.01 ng/mL
- Tucaresol plasma concentration, Mean [1, 5]: 4.30 ng/mL
- Tucaresol plasma concentration, Mean [1, 6]: 7.04 ng/mL
- Tucaresol plasma concentration, Mean [1, 7]: 8.52 ng/mL
- concentration at 0.083 h [1, 8]: 3220 ng/mL
- concentration at 0.25 h [1, 8]: 1740 ng/mL
- concentration at 0.5 h [1, 8]: 335 ng/mL
- concentration at 2 h [1, 8]: 179 ng/mL
- concentration at 4 h [1, 8]: 43.4 ng/mL
- concentration at 0.083 h [1, 9]: 3050 ng/mL
- concentration at 0.25 h [1, 9]: 1340 ng/mL
- concentration at 0.5 h [1, 9]: 283 ng/mL
- concentration at 1 h [1, 9]: 48.3 ng/mL
- concentration at 2 h [1, 9]: 187 ng/mL
- concentration at 4 h [1, 9]: 54 ng/mL
- concentration at 8 h [1, 9]: 18 ng/mL
- Tucaresol plasma concentration, Mean [1, 10]: 16.2 ng/mL
- Tucaresol plasma concentration, Mean [1, 11]: 9.3 ng/mL
- Tucaresol plasma concentration, Mean [1, 12]: 5.54 ng/mL
- Tucaresol plasma concentration, Mean [1, 13]: 11.0 ng/mL
- Tucaresol plasma concentration, Mean [1, 14]: 15.7 ng/mL
- Tucaresol plasma concentration, Mean [1, 15]: 28.4 ng/mL
- concentration at 0.25 h [1, 16]: 5780 ng/mL
- concentration at 0.5 h [1, 16]: 3370 ng/mL
- concentration at 4 h [1, 16]: 468 ng/mL
- concentration at 8 h [1, 16]: 114 ng/mL
- concentration at 24 h [1, 16]: 6.93 ng/mL
- concentration at 0.25 h [1, 17]: 4260 ng/mL
- concentration at 0.5 h [1, 17]: 2650 ng/mL
- concentration at 1 h [1, 17]: 674 ng/mL
- concentration at 2 h [1, 17]: 478 ng/mL
- concentration at 4 h [1, 17]: 412 ng/mL
- concentration at 8 h [1, 17]: 152 ng/mL
- concentration at 24 h [1, 17]: 10.5 ng/mL

Compound: CC(=O)Oc1cccc(OCc2ccc(C(=O)O)cc2)c1C=O [Compound C01, 4-((3-acetoxy-2-formylphenoxy)methyl)benzoic acid]
- mouse plasma stability (in words) [2]: unstable
- Remaining % ([2]; 0 min): 100%
- Remaining % ([2]; 5 min): 15.0%
- Remaining % ([2]; 15 min): 1.07%
- AUClast/D ([1]; male, C57BL/6, mouse): 4.24 ng·h/mL per mg/kg
- F ([1]; male, C57BL/6, mouse): 0.333%
- T1/2 ([1]; male, C57BL/6, mouse): 4.24 h
- Tmax ([1]; male, C57BL/6, mouse): 0.333 h
- Concentration, Compound B02 IV Plasma concentration-time data, Mean [1, 3]: 1021 ng/mL
- Concentration, Compound B02 IV Plasma concentration-time data, Mean [1, 4]: 691 ng/mL
- Concentration, Compound B02 IV Plasma concentration-time data, Mean [1, 18]: 465 ng/mL
- Concentration, Compound B02 IV Plasma concentration-time data, Mean [1, 19]: 316 ng/mL
- Concentration, Compound B02 IV Plasma concentration-time data, Mean [1, 5]: 201 ng/mL
- Concentration, Compound B02 IV Plasma concentration-time data, Mean [1, 6]: 116 ng/mL
- Concentration, Compound B02 IV Plasma concentration-time data, Mean [1, 7]: 60.9 ng/mL
- tucaresol exposure in plasma (in words) ([1]; male, C57BL/6, mouse, po): significant but lower tucaresol exposure than Compound C02 dosing
- Concentration, Compound B02 PO Plasma concentration-time data, Mean [1, 10]: 643 ng/mL
- Concentration, Compound B02 PO Plasma concentration-time data, Mean [1, 11]: 512 ng/mL
- Concentration, Compound B02 PO Plasma concentration-time data, Mean [1, 12]: 386 ng/mL
- Concentration, Compound B02 PO Plasma concentration-time data, Mean [1, 13]: 302 ng/mL
- Concentration, Compound B02 PO Plasma concentration-time data, Mean [1, 14]: 191 ng/mL
- Concentration, Compound B02 PO Plasma concentration-time data, Mean [1, 15]: 107 ng/mL
- Concentration, Compound B02 PO Plasma concentration-time data, Mean ([1]; male, C57BL/6, mouse, po, 10 mg/kg, 24 h): 7.50 ng/mL
- tucaresol exposure in plasma (in words) ([1]; mouse, po): significant exposure to tucaresol in plasma

Compound: COC(=O)c1ccc(COc2cccc(O)c2C=O)cc1 [Compound C02-1, methyl 4-((2-formyl-3-hydroxyphenoxy)methyl)benzoate]
- mouse plasma stability (in words) [2]: unstable
- Remaining % ([2]; 0 min): 100%
- Remaining % ([2]; 5 min): 18.9%
- Remaining % ([2]; 15 min): 16.7%
- Remaining % ([2]; 30 min): 6.56%
- Remaining % ([2]; 60 min): 2.37%
- AUClast/D ([1]; male, C57BL/6, mouse): 161 ng·h/mL per mg/kg
- T1/2 ([1]; male, C57BL/6, mouse): 13.8 h
- Tmax ([1]; male, C57BL/6, mouse): 3.33 h
- Tucaresol concentration, Mean [1, 3]: 17.3 ng/mL
- Tucaresol concentration, Mean [1, 4]: 52.9 ng/mL
- Tucaresol concentration, Mean [1, 18]: 79.9 ng/mL
- Tucaresol concentration, Mean [1, 19]: 60.5 ng/mL
- Tucaresol concentration, Mean [1, 5]: 49.3 ng/mL
- Tucaresol concentration, Mean [1, 6]: 36.0 ng/mL
- Tucaresol concentration, Mean [1, 7]: 18.2 ng/mL
- Tucaresol concentration, Mean [1, 11]: 15.9 ng/mL
- Tucaresol concentration, Mean [1, 12]: 49.9 ng/mL
- Tucaresol concentration, Mean [1, 13]: 103 ng/mL
- Tucaresol concentration, Mean [1, 14]: 114 ng/mL
- Tucaresol concentration, Mean [1, 15]: 83.0 ng/mL
